The values that follow are results of earlier work, collected in patent US20040167132A1, “Methods of treating conditions associted with an Edg-2 receptor” (priority 2003, published 2004).

Where a name gives a salt, the structure may show the parent alone.

The target of one series is Adrenergic β. The settings on record: radioligand; Wistar rat brain; historical value.
Series [1] has as its target Adrenergic α1 non-selective.
For series [2], the target named is Serotonin 5-HT1, non-selective. The settings on record: radioligand; Wistar rat cerebral cortex; historical value.
In the next series the target is T1, Angiotensin AT2 (Homo sapiens, UniProt P50052).
T1 construct: expressed in transfected cells; host or cells: HeLa cells
T1 sequence (P50052 1-363): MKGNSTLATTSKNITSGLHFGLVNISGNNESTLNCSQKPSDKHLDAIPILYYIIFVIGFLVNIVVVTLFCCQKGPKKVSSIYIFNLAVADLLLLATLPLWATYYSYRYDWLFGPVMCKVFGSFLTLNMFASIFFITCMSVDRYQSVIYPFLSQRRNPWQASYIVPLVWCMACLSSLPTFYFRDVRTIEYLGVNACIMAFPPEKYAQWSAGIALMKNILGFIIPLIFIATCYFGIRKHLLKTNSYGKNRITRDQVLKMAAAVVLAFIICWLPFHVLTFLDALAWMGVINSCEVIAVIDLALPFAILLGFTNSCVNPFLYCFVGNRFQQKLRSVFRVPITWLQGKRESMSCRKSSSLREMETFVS
The note with it: radioligand; Human recombinant Hela cells; historical value.

In general, Kd refers to a measure of binding affinity in units of concentration. With `CCCc1ccccc1OCC(O)CNC(C)C` (stereo not shown) [^3H Dihydroaplenolol, Dihydroaplenolol], the dissociation constant Kd on Adrenergic β is 500 pM.

Turning to `COc1cc2nc(N3CCN(C(=O)c4ccco4)CC3)nc(N)c2cc1OC` [^3H Prazosin, Prazosin], the Kd in series [1] was 290 pM.

For `NCCc1c[nH]c2ccc(O)cc12` [^3H Serotonin (5-HT) Trifluoroacetate, Serotonin (5-HT) Trifluoroacetate], the dissociation constant Kd in series [2] was 610 pM.

As for CGP-42112A [^125I CGP-42112A], the Kd at Angiotensin AT2 was 12 pM.
